According to PMC6858350, “A common mechanism allows selective targeting of GluN2B subunit-containing N-methyl-D-aspartate receptors” (Communications Biology, 2019):

What was measured:
[1] = molecular target: GluN1-1a/GluN2B NMDAR (wildtype) (Rattus norvegicus, UniProt P35439+Q00960); format: cell-based
[2] = molecular target: T1, GluN1-1a Y109S/GluN2B WT (Rattus norvegicus, UniProt P35439+Q00960, Y109S); conditions: GluN1-1a Y109S
[3] = molecular target: T2, GluN1-1a F113S/GluN2B WT (Rattus norvegicus, UniProt P35439+Q00960, F113S); conditions: GluN1-1a F113S
[4] = molecular target: T3, GluN1-1a S132A/GluN2B WT (Rattus norvegicus, UniProt P35439+Q00960, S132A); conditions: GluN1-1a S132A
[5] = molecular target: T4, GluN1-1a L135N/GluN2B WT (Rattus norvegicus, UniProt P35439+Q00960, L135N); conditions: GluN1-1a L135N
[6] = molecular target: T5, GluN1-1a WT/GluN2B Q110A (Rattus norvegicus, UniProt P35439+Q00960, Q110A); conditions: GluN2B Q110A
[7] = molecular target: T6, GluN1-1a WT/GluN2B I111A (Rattus norvegicus, UniProt P35439+Q00960, I111A); conditions: GluN2B I111A
[8] = molecular target: T7, GluN1-1a WT/GluN2B F114A (Rattus norvegicus, UniProt P35439+Q00960, F114A); conditions: GluN2B F114A
[9] = molecular target: T8, GluN1-1a/GluN2B (ifenprodil binding site) (Homo sapiens, UniProt Q05586+Q13224); conditions: displacement of [3H]ifenprodil; Ki values previously published; read-out: Ki + SEM; cited from earlier work
T8 construct: expressed in transfected cells; host or cells: mouse L(tk) cells, dexamethasone-inducible expression; membrane fraction

[10] = molecular target: T9, GluN1-1a WT/GluN2B F176A (Rattus norvegicus, UniProt P35439+Q00960, F176A); conditions: GluN2B F176A
[11] = molecular target: T10, GluN1-1a WT/GluN2B F176Y (Rattus norvegicus, UniProt P35439+Q00960, F176Y); conditions: GluN2B F176Y
[12] = molecular target: GluN1-1a WT/GluN2B E236A (Rattus norvegicus, UniProt P35439+Q00960, E236A); conditions: GluN2B E236A
[13] = molecular target: T1, GluN1-1a Y109S/GluN2B WT; assay: cell-based
[14] = molecular target: T2, GluN1-1a F113S/GluN2B WT; assay: cell-based
[15] = molecular target: T3, GluN1-1a S132A/GluN2B WT; assay: cell-based
[16] = molecular target: T4, GluN1-1a L135N/GluN2B WT; assay: cell-based
[17] = molecular target: T5, GluN1-1a WT/GluN2B Q110A; assay: cell-based
[18] = molecular target: T6, GluN1-1a WT/GluN2B I111A; assay: cell-based
[19] = molecular target: T7, GluN1-1a WT/GluN2B F114A; assay: cell-based
[20] = molecular target: T9, GluN1-1a WT/GluN2B F176A; assay: cell-based
[21] = molecular target: T10, GluN1-1a WT/GluN2B F176Y; assay: cell-based
[22] = molecular target: GluN1-1a/GluN2A NMDAR (Rattus norvegicus, UniProt P35439+Q00959); assay: cell-based; conditions: read-out: ion current inhibition % ± SEM, GluN2A
[23] = molecular target: GluN1-1a/GluN2C NMDAR (Rattus norvegicus, UniProt P35439+Q00961); assay: cell-based; conditions: read-out: ion current inhibition % ± SEM, GluN2C
[24] = molecular target: GluN1-1a/GluN2D NMDAR (Rattus norvegicus, UniProt P35439+Q62645); assay: cell-based; conditions: read-out: ion current inhibition % ± SEM, GluN2D
[25] = maximum inhibition fixed to wildtype value

T4 sequence (Q00960 27-1482, other chains not shown): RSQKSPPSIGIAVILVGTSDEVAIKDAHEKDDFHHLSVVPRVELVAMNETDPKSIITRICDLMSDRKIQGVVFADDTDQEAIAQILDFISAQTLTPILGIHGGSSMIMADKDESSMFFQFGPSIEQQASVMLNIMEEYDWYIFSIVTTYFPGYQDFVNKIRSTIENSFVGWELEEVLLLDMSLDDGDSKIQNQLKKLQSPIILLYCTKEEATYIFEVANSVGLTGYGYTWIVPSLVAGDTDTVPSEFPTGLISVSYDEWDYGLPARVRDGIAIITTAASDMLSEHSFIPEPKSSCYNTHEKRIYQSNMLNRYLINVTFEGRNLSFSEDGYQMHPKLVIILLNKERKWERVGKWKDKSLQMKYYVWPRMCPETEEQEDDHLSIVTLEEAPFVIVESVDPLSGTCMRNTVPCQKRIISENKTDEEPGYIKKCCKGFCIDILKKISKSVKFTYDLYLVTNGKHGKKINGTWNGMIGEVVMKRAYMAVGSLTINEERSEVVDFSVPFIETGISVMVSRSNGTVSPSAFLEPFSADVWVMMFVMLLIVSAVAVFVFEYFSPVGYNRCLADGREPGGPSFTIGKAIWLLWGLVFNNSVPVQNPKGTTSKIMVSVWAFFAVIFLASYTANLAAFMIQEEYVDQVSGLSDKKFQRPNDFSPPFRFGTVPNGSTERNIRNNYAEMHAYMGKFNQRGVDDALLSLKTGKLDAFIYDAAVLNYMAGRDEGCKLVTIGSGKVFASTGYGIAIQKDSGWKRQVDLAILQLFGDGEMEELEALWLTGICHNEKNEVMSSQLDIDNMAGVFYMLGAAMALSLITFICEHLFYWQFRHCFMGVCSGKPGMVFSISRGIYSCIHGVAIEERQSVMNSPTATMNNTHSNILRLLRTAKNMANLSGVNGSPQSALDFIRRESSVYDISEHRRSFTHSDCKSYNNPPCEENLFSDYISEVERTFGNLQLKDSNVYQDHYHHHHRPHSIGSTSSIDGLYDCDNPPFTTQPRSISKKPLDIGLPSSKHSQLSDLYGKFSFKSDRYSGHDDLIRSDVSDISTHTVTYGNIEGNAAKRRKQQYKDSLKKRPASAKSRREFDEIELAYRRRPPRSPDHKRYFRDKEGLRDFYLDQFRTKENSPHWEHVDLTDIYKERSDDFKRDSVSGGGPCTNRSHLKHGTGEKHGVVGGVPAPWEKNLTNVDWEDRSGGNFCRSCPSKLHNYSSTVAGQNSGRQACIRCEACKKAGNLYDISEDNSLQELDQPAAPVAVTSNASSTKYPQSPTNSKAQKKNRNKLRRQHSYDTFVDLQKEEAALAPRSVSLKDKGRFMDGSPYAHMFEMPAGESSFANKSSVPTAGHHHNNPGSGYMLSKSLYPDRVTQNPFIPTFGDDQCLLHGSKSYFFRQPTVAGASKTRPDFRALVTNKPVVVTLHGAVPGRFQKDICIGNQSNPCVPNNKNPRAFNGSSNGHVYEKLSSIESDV
T3 sequence (Q00960 27-1482, other chains not shown): as above
Sequence of GluN1-1a/GluN2B NMDAR (wildtype) (Q00960 27-1482, other chains not shown): as above

## Oc1ccc2c(c1)CCN(CCCCc1ccccc1)C[C@H]2O [compound (S)-1]
[1]; TEVC, holding potential −70 mV, 10 µM glycine and 10 µM (S)-glutamate, wildtype, read-out: IC50 ± SE
  IC50: 0.206 ± 0.023 µM
[1]; TEVC, −70 mV, wildtype
  p (slope of the dose-response curve): 0.98
[1]; TEVC, −70 mV, wildtype, flexible A2
  A2 ± SE (maximum inhibition from dose-response curve): 95 ± 2%
[1]; read-out: ion current inhibition % ± SEM, GluN2B
  inhibition at 10 µM: 93 ± 1%
[2]
  p (slope): 0.85
[2]; flexible A2
  A2 ± SE: 79 ± 4%
[3]
  p (slope): 0.87
[3]; flexible A2
  A2 ± SE: 89 ± 4%
[4]
  p (slope): 1.16
[4]; flexible A2
  A2 ± SE: 89 ± 1%
[5]
  p (slope): 0.98
[5]; flexible A2
  A2 ± SE: 68 ± 7%
[6]
  p (slope): 1.27
[6]; flexible A2
  A2 ± SE: 94 ± 2%
[7]
  p (slope): 0.89
[7]; flexible A2
  A2 ± SE: 73 ± 6%
[8]
  p (slope): 1.26
[8]; [25]
  A2, fixed-to-wildtype (*): 95%
[9]
  Ki: 0.74 ± 0.061 µM
[10]
  p (slope): 1.00
[10]; [25]
  A2, fixed-to-wildtype (*): 95%
[11]
  p (slope): 0.82
[11]; [25]
  A2, fixed-to-wildtype (*): 95%
[12]
  p (slope): 0.99
[12]; flexible A2
  A2 ± SE: 96 ± 8%
[13]
  IC50: 0.764 ± 0.189 µM
[14]
  IC50: 0.756 ± 0.137 µM
[15]
  IC50: 0.691 ± 0.044 µM
[16]
  IC50: 3.66 ± 1.18 µM
[17]
  IC50: 0.243 ± 0.034 µM
[18]
  IC50: 1.56 ± 0.504 µM
[19]
  IC50: 38.9 ± 5.28 µM
[20]
  IC50: 15.5 ± 1.79 µM
[21]
  IC50: 0.261 ± 0.025 µM
[22]
  inhibition at 10 µM: 6 ± 2%
[23]
  inhibition at 10 µM: 19 ± 2%
[24]
  inhibition at 10 µM: 21 ± 3%
